This is an account of results in the SangsterLogP compilation.

What is called logP is the decadic logarithm of the partition coefficient of the neutral form, usually between octanol and water.

For `CCCC(C)(C)O`, the logP was found to be 1.53.

`OC1CCCCCCC1` registered a logP of 2.39.

With `CCCCC(=O)OCC`, the logP is 2.3.

Consider `CC(C)C(C)(C)O`, for which the logP came out at 1.48.

`ClCC(Cl)(Cl)Cl` yielded a logP of 2.66.

Compound `CCCC(=O)CCC` showed a logP of 2.04.

For `CCCC(=O)OCC`, the logP is 1.71.

Compound `C#CCCCCC` had a logP of 3.32.

On to `CCCCCCCCC(=O)OC`, for which the logP was 3.87.

For the compound `CC(C)CBr`, the logP amounted to 2.53.

`CCCCCCCCCCBr` came in with a logP of 6.

For the compound `CCCCCCCl`, the logP stood at 3.66.

On to `CC(C)CCl`, for which the logP is 2.39.

As for `CC1CCCO1` (centres undefined), the logP stood at 1.25.

For `CCCCCCCCCCCCCC`, the logP was 8.

In turn, `CCCCCCl` showed a logP of 3.11.

As to `CC(=O)OC(C)C`, the logP was 1.02.

As to `CCCCCCCCCCc1ccccc1`, the logP was 7.4.

In turn, `CCCCI` yielded a logP of 3.08.

Consider `CCCCF`, for which the logP turned out to be 2.

The compound `CC(C)Br` displayed a logP of 2.1.

For `CCN1CCCCC1`, the logP is 1.88.

As for `ClCCCCCl`, the logP turned out to be 2.24.

`CCC(C)(C)c1ccc(O)cc1` had a logP of 3.83.

In turn, `C=CCC=CC` registered a logP of 3.16.

The compound `CCC(=O)OC(C)C` yielded a logP of 1.57.

`CCCCCC(=O)OC`: the logP was determined as 2.42.

For the compound `CCCCC(=O)CCCC`, the logP turned out to be 2.88.

With `CCCCCI`, the logP was 3.62.

As for `CCCCCCCCCl`, the logP was 4.73.

`C=CCCC` had a logP of 2.8.

Take `CCCCOC(=O)CCCC`: the logP was found to be 3.36.

Compound `C#CCCCCCCC` gave a logP of 4.51.

On to `CCCI`, for which the logP came to 2.54.

As for `CCC(C)(C)CC`, the logP worked out at 5.19.

`OC1CCCCCC1`: the logP amounted to 1.83.

`CCOC(=O)C(C)C`: the logP stood at 1.55.

Consider `CCOC=O`, for which the logP worked out at 0.27.

In turn, `C#CCC` had a logP of 1.46.

For the compound `CCCOC(=O)CC`, the logP stood at 1.71.

Compound `CCCCCCCCC` came in with a logP of 5.65.

In turn, `C#CCCCCCC` yielded a logP of 3.92.

On to `CCCCCCI`, for which the log partition coefficient (logP) was 4.16.

In turn, `CCCOC(=O)CCC` displayed a logP of 2.15.
